Test results from patent publication US10865376B2, “Method for detecting the presence or absence of biological particles” (bioMérieux, priority 2014, dated 2020).

Columns and labels:
Type in all cases: cell-based
[1] = system: Escherichia coli (ATCC 35218); test: Detection of the inhibition zone around a support impregnated with antibiotic, by ombroscopy / micro-ombroscopy
Description: (§1) In general terms, referring to FIG. 2, the method of detection 100 of the present invention comprises a first step 101 of seeding the culture medium 2 with an extract of biological particles 1. The extract of biological particles 1 is for example a raw sample of biological particles 1 taken from the patient directly. In this case the raw sample undergoes a preculture phase for isolating strains of biological particles 1 present, in the case of a sample comprising a diversity of biological particles 1, and increase of the biological particles 1 selected and isolated. […] The sample of biological particles 1 has a biomass of biological particles 1 that is sufficient to be analyzed validly, such as a standard at a concentration of 0.5 McFarland. The extract of biological particles 1 is for example from urine, blood, cerebrospinal fluid or a similar biological fluid.
(§2) The culture medium 2 is for example flooded with the extract of biological particles 1, or the culture medium 2 is seeded with biological particles 1 by swabbing, or the culture medium 2 receives the biological particles by spreading them using a rake. Then, the Petri dish 4 is agitated transversely to distribute the extract of biological particles 1 as uniformly as possible on the culture medium 2, and then any supernatant is removed from the Petri dish 4. The first step of seeding 101 may have features different from those described above without departing from the rules of the present invention.
The method of detection 100 then comprises a second step 102 of receiving at least one dose of the chemical agent 3 at the initial time point T0, for example starting from placement of at least one impregnated support 5 inoculated with the chemical agent 3 on a receiving zone R of the impregnated support 5 on the culture medium 2.
The impregnated support 5 is for example a disk impregnated with the chemical agent 3, the disk having the overall conformation of a thin slice of a cylinder. The disk comprises an amount of chemical agent 3 that is homogeneous overall in its volume. […]

[2] = system: Staphylococcus aureus (ATCC 25923); test: Minimum inhibitory concentration calculated from the normed representation (ombroscopy image plus ruler); conditions: starting from six hours, FIG. 28
Description: (§3) The impregnated support 5 is for example also a slender strip, of overall rectangular conformation. The strip comprises for example a concentration of chemical agent 3 that follows an increasing concentration gradient from one short edge to an opposite short edge of the strip. In FIG. 19, the fifth processing step 105 comprises a second phase X2 of taking a control photograph 7' of a ruler 15 arranged on the culture medium 2 contained in the Petri dish 4, the second phase X2 also being carried out by the detecting device 12. Then the fifth processing step 105 comprises a third phase X3 of superimposing the image 7 and the control photograph 7' and more particularly of their respective receiving zone R to form a normed representation 7'' of the culture medium 2. In FIG. 20, the fifth processing step 105 comprises a fourth phase X4 of localization of a reference mark 16 of the ruler 15. In the example shown, the reference mark 16 is the indication “256” on the ruler 15, and the reference mark 16 may consist of some other and relatively any indication. The reference mark 16 comprises Cartesian coordinates […] and […]. In FIGS. 21 to 25, the fifth processing step 105 comprises a fifth phase X5 of processing the normed representation 7''. In FIG. 21, the fifth phase X5 comprises at least one smoothing operation for homogenizing the normed representation 7''. […]

[3] = system: Escherichia coli (ATCC 25922); test: as above; conditions: starting from six hours, FIGS. 26 and 27
Description: as §3

[4] = system: Escherichia coli (ATCC 25922); test: Detection of the inhibition zone around a support impregnated with antibiotic, by micro-ombroscopy; conditions: micro-ombroscopy (FIG. 10 device), detection time TX of two hours
Description: as §1
as §2, with “The first step of seeding 101 may have features different from those described above without departing from the rules of the present invention.” left out

[5] = system: Escherichia coli (ATCC 35218); test: Minimum inhibitory concentration / inhibition zone from the normed representation (ombroscopy image plus ruler)
Description: as §3

response characterized from the calculated minimum concentration MIC [2]: sensitive | response characterized from the calculated minimum concentration MIC [3]: sensitive
SMILES: CC1(C)S[C@@H]2[C@H](NC(=O)[C@H](N)c3ccccc3)C(=O)N2[C@H]1C(=O)O [ampicillin]
response of the biological particles to the chemical agent (sensitivity / resistance) ([1]; micro-ombroscopy (FIG. 10 device), detection time TX of four hours): resistance | response of the biological particles to the chemical agent (sensitivity / resistance) ([1]; ombroscopy (FIG. 9 device), identifiable starting from four hours, images up to twenty-four hours): resistance | presence or absence of inhibition zone ([1]; ombroscopy (FIG. 9 device), starting from four hours): no inhibition zone is detected | response of the biological particles to the chemical agent (sensitivity / resistance) [4]: sensitivity | response from the normed representation ([5]; FIG. 29, based on absence of a first inhibition zone Z1): resistant | response from the normed representations, according to EUCAST ([5]; FIG. 30): resistant
